Laboratory results reported in patent US20090099169A1, “Benzofuran Compounds As EP1 Receptor Antagonists” (GLAXO GROUP LIMITED, priority 2006, published 2009).
Counter-ions that a name gives are not always drawn.

Experiments:
[1] = target: T1, human EP1 receptor (Homo sapiens, UniProt P34995); experiment: human EP1 calcium mobilisation assay; format: cell-based; design: expressed in transfected cells; conditions: CHO-K1 cells, antagonism of PGE2; averages of a number of experiments; read-out: functional pKi value (human EP1 calcium mobilisation assay) (converted)
T1 sequence (P34995 1-402): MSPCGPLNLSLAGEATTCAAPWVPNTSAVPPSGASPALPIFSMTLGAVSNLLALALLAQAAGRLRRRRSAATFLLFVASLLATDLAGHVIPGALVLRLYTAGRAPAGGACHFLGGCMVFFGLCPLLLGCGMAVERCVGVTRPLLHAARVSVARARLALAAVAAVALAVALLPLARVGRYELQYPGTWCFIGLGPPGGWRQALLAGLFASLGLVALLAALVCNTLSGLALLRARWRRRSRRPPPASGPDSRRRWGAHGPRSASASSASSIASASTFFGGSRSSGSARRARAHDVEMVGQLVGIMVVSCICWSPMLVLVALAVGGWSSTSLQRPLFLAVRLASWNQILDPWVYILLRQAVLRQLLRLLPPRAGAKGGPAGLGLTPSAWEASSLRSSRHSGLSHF
Experimental: Briefly, the antagonist properties of compounds are assessed by their ability to inhibit the mobilisation of intracellular calcium ([Ca^2+]i) in response to activation of EP1 or EP3 receptors by the natural agonist hormone prostaglandin E2 (PGE2). Increasing concentrations of antagonist reduce the amount of calcium that a given concentration of PGE2 can mobilise. The net effect is to displace the PGE2 concentration-effect curve to higher concentrations of PGE2. The amount of calcium produced is assessed using a calcium-sensitive fluorescent dye such as Fluo-4, AM and a suitable instrument such as a Fluorimetric Imaging Plate Reader (FLIPR). Increasing amounts of [Ca^2+]i produced by receptor activation increase the amount of fluorescence produced by the dye and give rise to an increasing signal. The signal may be detected using the FLIPR instrument and the data generated may be analysed with suitable curve-fitting software.
The human EP1 or EP3 calcium mobilisation assay (hereafter referred to as ‘the calcium assay’) utilises Chinese hamster ovary-K1 (CHO-K1) cells into which a stable (PCIN; BioTechniques 20 (1996): 102-110) vector containing either EP1 or EP3 cDNA has previously been transfected. Cells are cultured in suitable flasks containing culture medium such as DMEM:F-12 supplemented with 10% v/v foetal calf serum, 2 mM L-glutamine, 0.25 mg/ml geneticin, 100 μM flurbiprofen and 10 μg/ml puromycin.
For assay, cells are harvested using a proprietary reagent that dislodges cells such as Versene. Cells are re-suspended in a suitable quantity of fresh culture media for introduction into a 384-well plate. Following incubation for 24 hours at 37° C. the culture media is replaced with a medium containing Fluo-4 and the detergent pluronic acid, and a further incubation takes place. Concentrations of compounds are then added to the plate in order to construct concentration-effect curves. This may be performed on the FLIPR in order to assess the agonist properties of the compounds. Concentrations of PGE2 are then added to the plate in order to assess the antagonist properties of the compounds.
The data so generated may be analysed by means of a computerised curve-fitting routine. The concentration of compound that elicits a half-maximal inhibition of the calcium mobilisation induced by PGE2 (pIC50) may then be estimated.

[2] = target: T1, human EP1 receptor; experiment: Binding assay for the human prostanoid EP1 receptor (radioligand competition); design: expressed in transfected cells; host or cells: CHO-K1 (membranes); conditions: CHO-K1 membranes; [3H]-PGE2 for Examples 1-17, 19, 33, 34, 60 and 61, 3-{2-[5-Bromo-2-(2,4-difluorobenzyloxy)-phenyl]-5-methyl-pyrrol-1-yl}-6-[3H3-methoxy]methoxy-benzoic acid for the remaining; averages of a number of experiments; read-out: pIC50 value (binding assay for the human prostanoid EP1 receptor) (converted)
Experimental: Compound potencies are determined using a radioligand binding assay. In this assay compound potencies are determined from their ability to compete with tritiated prostaglandin E2 ([^3H]-PGE2) for binding to the human EP1 receptor.
This assay utilises Chinese hamster ovary-K1 (CHO-K1) cells into which a stable vector containing the EP1 cDNA has previously been transfected. Cells are cultured in suitable flasks containing culture medium such as DMEM:F-12 supplemented with 10% v/v foetal calf serum, 2 mM L-glutamine, 0.25 mg/ml geneticin, 10 μg/ml puromycin and 10 μM indomethacin.
Cells are detached from the culture flasks by incubation in calcium and magnesium free phosphate buffered saline containing 1 mM disodium ethylenediaminetetraacetic acid (Na2EDTA) and […] indomethacin for 5 min. The cells are isolated by centrifugation at 250×g for 5mins and suspended in an ice cold buffer such as 50 mM Tris, 1 mM Na2EDTA, 140 mM NaCl, 10 μM indomethacin (pH 7.4). The cells are homogenised using a Polytron tissue disrupter (2×10 s burst at full setting), centrifuged at 48,000×g for 20mins and the pellet containing the membrane fraction is washed (optional) three times by suspension and centrifugation at 48,000×g for 20mins. The final membrane pellet is suspended in an assay buffer such as 10 mM 2-[N-morpholino]ethanesulphonic acid, 1 mM Na2EDTA, 10 mM MgCl2 (pH 6). Aliquots are frozen at −80° C. until required.
(§1) For the binding assay the cell membranes, competing compounds and [^3H]-PGE2 (3 nM final assay concentration) are incubated in a final volume of 100 μl for 30 min at 30° C. All reagents are prepared in assay buffer. Reactions are terminated by rapid vacuum filtration over GF/B filters using a Brandell cell harvester. The filters are washed with ice cold assay buffer, dried and the radioactivity retained on the filters is measured by liquid scintillation counting in Packard TopCount scintillation counter.
The data are analysed using non linear curve fitting techniques to determine the concentration of compound producing 50% inhibition of specific binding (IC50).
Alternatively a similar assay may be carried out using 3-{2-[5-Bromo-2-(2,4-difluoro-benzyloxy)-phenyl]-5-methyl-pyrrol-1-yl}-6-[^3H3-methoxy]methoxy-benzoic acid instead of [^3H]-PGE2.
For the binding assay using 3-{2-[5-Bromo-2-(2,4-difluoro-benzyloxy)-phenyl]-5-methyl-pyrrol-1-yl}-6-[^3H3-methoxy]methoxy-benzoic acid instead of [^3H]-PGE2 the assay is carried out using a similar procedure to that described above using [^3H]-PGE2 with the following changes:
as §1, with “The” for “For the binding assay the”, “3-{2-[5-Bromo-2-(2,4-difluoro-benzyloxy)-phenyl]-5-methyl-pyrrol-1-yl}-6-[^3H3-methoxy]methoxy-benzoic acid (0.2” for “[^3H]-PGE2 (3”, “400” for “100”, “45” for “30”, “37°” for “30°”, “water at ambient temperature,” for “ice cold assay buffer,”
The preparation of 3-{2-[5-Bromo-2-(2,4-difluoro-benzyloxy)-phenyl]-5-methyl-pyrrol-1-yl}-6-methoxy-benzoic acid is described in WO 03/101959 and in Hall et al, Biorg. Med. Chem. Lett., 2007, 17, 916-920. The tritiated version may be prepared via conventional routes, e.g. from 3-{2-[5-bromo-2-(2,4-difluoro-benzyloxy)-phenyl]-5-methyl-pyrrol-1-yl}-6-hydroxy-benzoic acid or 3-{2-[5-bromo-2-(2,4-difluoro-benzyloxy)-phenyl]-5-methyl-pyrrol-1-yl}-6-hydroxy-benzoic acid methyl ester.

Row | SMILES | Ki [1] [nM] | IC50 [2] [nM]
1 | Cc1cc(C(=O)NN2CCOCC2)nn1Cc1cc(Br)cc2cc(C(C)C)oc12 [Example 18, 1-{[5-Bromo-2-(1-methylethyl)-1-benzofuran-7-yl]methyl}-5-methyl-N-4-morpholinyl-1H-pyrazole-3-carboxamide] | ≤ 316 | ≤ 100
2 | CC(C)c1cc2cc(Cl)cc(Cc3ccc(C(=O)NCC4CCNCC4)o3)c2o1 [Example 48] | 1000 to 1580 | ≤ 100
3 | Cc1cc(C(=O)O)nn1Cc1cc(Cl)cc2cc(C(C)(C)C)oc12 [Example 27, 1-{[5-Chloro-2-(1,1-dimethylethyl)-1-benzofuran-7-yl]methyl}-5-methyl-1H-pyrazole-3-carboxylic Acid] | ≤ 316 | ≤ 100
4 | Cc1cc(NC(=O)[C@H]2CC[C@@H](O)CC2)nn1Cc1cc(Cl)cc2cc(C(C)C)oc12 [Example 62, cis-N-(1-{[5-Chloro-2-(1-methylethyl)-1-benzofuran-7-yl]methyl}-5-methyl-1H-pyrazol-3-yl)-4-hydroxycyclohexanecarboxamide] | – | ≤ 100
5 | Cc1cc(C(=O)NN2CCCCC2)nn1Cc1cc(Cl)cc2cc(C(C)C)oc12 [Example 6, 1-{[5-Chloro-2-(1-methylethyl)-1-benzofuran-7-yl]methyl}-5-methyl-N-1-piperidinyl-1H-pyrazole-3-carboxamide] | ≤ 316 | ≤ 100
6 | CC(C)c1cc2cc(Cl)cc(Cc3ccc(C(N)=O)o3)c2o1 [Example 37, 5-{[5-Chloro-2-(1-methylethyl)-1-benzofuran-7-yl]methyl}-2-furancarboxamide] | ≤ 316 | ≤ 100
7 | Cc1cc(C(=O)O)nn1Cc1cc(C#N)cc2cc(C(C)C)oc12 [Example 25, 1-{[5-Cyano-2-(1-methylethyl)-1-benzofuran-7-yl]methyl}-5-methyl-1H-pyrazole-3-carboxylic Acid] | ≤ 316 | ≤ 100
8 | Cc1cc(C(=O)Nc2ccc(CN3CCC(O)CC3)cc2)nn1Cc1cc(Br)cc2cc(C(C)C)oc12 [Example 49, 1-{[5-Bromo-2-(1-methylethyl)-1-benzofuran-7-yl]methyl}-N-{4-[(4-hydroxy-1-piperidinyl)methyl]phenyl}-5-methyl-1H-pyrazole-3-carboxamide Hydrochloride] | – | ≤ 100
9 | Cc1cc(C(=O)NC2CCOCC2)nn1Cc1cc(Cl)cc2cc(C3CCCCC3)oc12 [Example 29, 1-[(5-Chloro-2-cyclohexyl-1-benzofuran-7-yl)methyl]-5-methyl-N-(tetrahydro-2H-pyran-4-yl)-1H-pyrazole-3-carboxamide] | ≤ 316 | ≤ 100
10 | Cc1cc(C(=O)O)nn1Cc1cc(Cl)cc2cc(C3CC3)oc12 [Example 23, Sodium 1-[(5-chloro-2-cyclopropyl-1-benzofuran-7-yl)methyl]-5-methyl-1H-pyrazole-3-carboxylate] | – | ≤ 100
11 | Cc1cc(C(=O)Nc2ccc(CN3CCOCC3)cc2)nn1Cc1cc(Br)cc2cc(C(C)C)oc12 [Example 52, 1-{[5-Bromo-2-(1-methylethyl)-1-benzofuran-7-yl]methyl}-5-mthyl-N-[4-(4-morpholinylmethyl)phenyl]-1H-pyrazole-3-carboxamidehydrochloride] | ≤ 316 | ≤ 100

Results, then the molecule that gave them:

Row | Ki [1] [nM] | IC50 [2] [nM] | SMILES
12 | ≤ 316 | ≤ 100 | CNCc1ccc(NC(=O)c2cc(C)n(Cc3cc(Br)cc4cc(C(C)C)oc34)n2)cc1 [Example 50, 1-{[5-Bromo-2-(1-methylethyl)-1-benzofuran-7-yl]methyl}-5-methyl-N-{4-[(methylamino)methyl]phenyl}-1H-pyrazole-3-carboxamidehydrochloride]
13 | ≤ 316 | ≤ 100 | CC(C)c1cc2cc(Cl)cc(Cc3ccc(-c4nc5cc(CO)ccc5[nH]4)o3)c2o1 [Example 9, [2-(5-{[5-Chloro-2-(1-methylethyl)-1-benzofuran-7-yl]methyl}-2-furanyl)-1H-benzimidazol-5-yl]methanol Hydrochloride]
14 | ≤ 316 | ≤ 100 | CC(C)c1cc2cc(Cl)cc(Cc3cccc(C(=O)O)n3)c2o1 [Example 24]
15 | ≤ 316 | ≤ 100 | Cc1cc(C(=O)O)nn1Cc1cc(Br)cc2cc(C(C)C)oc12 [Example 19, 1-{[5-Bromo-2-(1-methylethyl)-1-benzofuran-7-yl]methyl}-5-methyl-1H-pyrazole-3-carboxylic Acid]
16 | ≤ 316 | ≤ 100 | Cc1cc(C(=O)NN2CCOCC2)nn1Cc1cc(Cl)cc2cc(C(C)C)oc12 [Example 7, 1-{[5-Chloro-2-(1-methylethyl)-1-benzofuran-7-yl]methyl}-5-methyl-N-4-morpholinyl-1H-pyrazole-3-carboxamide]
17 | ≤ 316 | ≤ 100 | Cc1cc(-c2nc3ccccc3[nH]2)nn1Cc1cc(Cl)cc2cc(C(C)C)oc12 [Example 5, 2-(1-{[5-Chloro-2-(1-methylethyl)-1-benzofuran-7-yl]methyl}-5-methyl-1H-pyrazol-3-yl)-1H-benzimidazole Hydrochloride]
18 | – | ≤ 100 | Cc1cc(NC(=O)c2ccc(CN3CCCC3)cc2)nn1Cc1cc(Cl)cc2cc(C(C)C)oc12 [Example 67]
